# Reference: ChEMBL document CHEMBL3393042, “Synthesis and photophysical characterization of quasi push-pull dicyanodibenzodioxins and their anti-tumor activity against glioma cell line C6” (Bioorg Med Chem Lett, 2015)
# Active and inactive are the calls of the source. The calls are words filed in the database; no cut-off is given here.
# System: C6
# Assay: Cytotoxicity against rat C6 cells assessed as cell viability at 2 to 50 uM after 24 hrs by MTT assay
# Format: functional, cell-based
row,Structure (SMILES),Activity
1,N#Cc1cc2c(cc1C#N)Oc1cc(Br)ccc1O2,Active
2,N#Cc1cc2c(cc1C#N)Oc1ccccc1O2,Active
3,N#Cc1cc2c(cc1C#N)Oc1cc([N+](=O)[O-])ccc1O2,inactive
